# In patent US11339161B2, “Triazolo pyridines as modulators of gamma-secretase” (Boehringer Ingelheim International GmbH, priority 2017, dated 2022):
# Like-named read-outs stand apart in the source and are kept apart here.
# Key:
# [1] = system: kinases; experiment: Z'-LYTE SelectScreen kinase panel: number of kinases with <40% inhibition out of 15 tested; assay type: biochemical; settings: 10 μmolar (10000 nM) compound; [ATP] Km app; 15 kinases tested
# [2] = biological target: MAP4K4 (HGK) (Homo sapiens, UniProt O95819); experiment: Z'-LYTE SelectScreen biochemical kinase assay MAP4K4 (HGK)
# Chain of MAP4K4 (HGK) (O95819 whole entry): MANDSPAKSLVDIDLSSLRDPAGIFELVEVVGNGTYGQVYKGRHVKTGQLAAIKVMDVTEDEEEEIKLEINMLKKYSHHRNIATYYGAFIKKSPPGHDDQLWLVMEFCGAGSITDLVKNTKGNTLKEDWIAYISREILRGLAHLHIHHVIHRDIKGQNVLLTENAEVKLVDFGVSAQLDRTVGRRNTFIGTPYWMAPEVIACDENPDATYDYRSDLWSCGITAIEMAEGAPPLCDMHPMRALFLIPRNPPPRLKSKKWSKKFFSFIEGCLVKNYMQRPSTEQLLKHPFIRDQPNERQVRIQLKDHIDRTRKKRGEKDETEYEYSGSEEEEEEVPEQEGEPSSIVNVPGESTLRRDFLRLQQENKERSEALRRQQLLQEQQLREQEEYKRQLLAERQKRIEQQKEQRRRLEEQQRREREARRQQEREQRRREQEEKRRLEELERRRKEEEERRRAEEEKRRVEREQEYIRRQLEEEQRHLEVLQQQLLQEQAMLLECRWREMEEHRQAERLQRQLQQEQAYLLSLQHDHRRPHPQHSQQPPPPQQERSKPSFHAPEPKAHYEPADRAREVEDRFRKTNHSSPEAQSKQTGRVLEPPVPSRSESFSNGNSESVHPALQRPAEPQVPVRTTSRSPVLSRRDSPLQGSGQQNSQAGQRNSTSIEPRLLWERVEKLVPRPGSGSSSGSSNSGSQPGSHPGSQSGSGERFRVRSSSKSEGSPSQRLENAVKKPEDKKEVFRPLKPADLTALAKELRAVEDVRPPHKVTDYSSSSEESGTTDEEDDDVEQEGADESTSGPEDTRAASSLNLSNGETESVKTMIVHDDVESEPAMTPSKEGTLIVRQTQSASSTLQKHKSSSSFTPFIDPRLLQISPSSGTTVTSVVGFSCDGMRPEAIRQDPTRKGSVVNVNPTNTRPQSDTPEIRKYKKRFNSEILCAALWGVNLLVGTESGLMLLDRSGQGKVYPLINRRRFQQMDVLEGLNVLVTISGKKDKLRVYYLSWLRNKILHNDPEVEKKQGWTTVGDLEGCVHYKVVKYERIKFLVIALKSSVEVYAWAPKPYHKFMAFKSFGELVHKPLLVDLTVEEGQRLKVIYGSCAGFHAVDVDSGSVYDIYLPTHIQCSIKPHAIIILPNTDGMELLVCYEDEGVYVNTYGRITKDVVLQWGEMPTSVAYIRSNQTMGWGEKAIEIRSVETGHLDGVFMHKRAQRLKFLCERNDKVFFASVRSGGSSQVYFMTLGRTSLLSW
# Description: (§1) Thermo Fisher Scientific SelectScreen™ Biochemical Kinase Profiling Service Z′-LYTE™ Screening Protocol and Assay Conditions Assay Theory
# (§2) The […] biochemical assay employs a fluorescence-based, coupled-enzyme format and is based on the differential sensitivity of phosphorylated and non-phosphorylated peptides to proteolytic cleavage. The peptide substrate is labeled with two fluorophores—one at each end—that make up a FRET pair. In the primary reaction, the kinase transfers the gamma-phosphate of ATP to a single tyrosine, serine or threonine residue in a synthetic FRET-peptide. In the secondary reaction, a site-specific protease recognizes and cleaves non-phosphorylated FRET-peptides. Phosphorylation of FRET-peptides suppresses cleavage by the Development Reagent. Cleavage disrupts FRET between the donor (i.e., coumarin) and acceptor (i.e., fluorescein) fluorophores on the FRET-peptide, whereas uncleaved, phosphorylated FRET-peptides maintain FRET. A ratiometric method, which calculates the ratio (Emission Ratio=Coumarin emission (445 nm)/Fluorescein emission (520 nm)) of donor emission to acceptor emission after excitation of the donor fluorophore at 400 nm, is used to quantitate reaction progress, as shown in the equation below. A significant benefit of this ratiometric method for quantitating reaction progress is the elimination of well-to-well variations in FRET-peptide concentration and signal intensities. As a result, the assay yields very high Z′-factor values (>0.7) at a low percent phosphorylation. Both cleaved and uncleaved FRET-peptides contribute to the fluorescence signals and therefore to the Emission Ratio. The extent of phosphorylation of the FRET-peptide can be calculated from the Emission Ratio. The Emission Ratio will remain low if the FRET-peptide is phosphorylated (i.e., no kinase inhibition) and will be high if the FRET-peptide is non-phosphorylated (i.e., kinase inhibition).
# (§3) The Test Compounds are screened in 1% DMSO (final) in the well. For 10 point titrations, 3-fold serial dilutions are conducted from the starting concentration of the customer's choosing.
# (§4) All Peptide/Kinase Mixtures are diluted to a 2× working concentration in the appropriate Kinase Buffer (see section Kinase Specific Assay Conditions for a complete description).
# (§5) All ATP Solutions are diluted to a 4× working concentration in Kinase Buffer (50 mM HEPES pH 7.5, 0.01% BRIJ-35, 10 mM MgCl2, 1 mM EGTA). ATP Km apparent is previously determined using a Z″-LYTE assay.
# (§6) The Development Reagent is diluted in Development Buffer (see section Kinase-Specific Assay Conditions—Direct and Cascade for a complete description).
# (§7) Bar-coded Corning, low volume NBS, black 384-well plate (Corning Cat. #4514) • 1. 100 nL—100× Test Compound in 100% DMSO • 2. 2.4 μL—Kinase buffer • 3. 5 μL—2× Peptide/Kinase Mixture • 4. 2.5 μL—4×ATP Solution • 5. 30—second plate shake • 6. 60—minute Kinase Reaction incubation at room temperature • 7. 5 μL—Development Reagent Solution • 8. 30—second plate shake • 9. 60—minute Development Reaction incubation at room temperature • 10. Read on fluorescence plate reader and analyze the data Z′-LYTE Assay Controls
# (§8) SelectScreen Kinase Profiling Service uses XLfit from IDBS. The dose response curve is curve fit to model number 205 (sigmoidal dose-response model).
# (§9) The 2×MAP4K4 (HGK)/Ser/Thr 07 mixture is prepared in 50 mM HEPES pH 7.5, 0.01% BRIJ-35, 10 mM MgCl2, 1 mM EGTA. The final 10 μL Kinase Reaction consists of 0.36-1.82 ng MAP4K4 (HGK) and 2 μM Ser/Thr 07 in 50 mM HEPES pH 7.5, 0.01% BRIJ-35, 10 mM MgCl2, 1 mM EGTA. After the 1 hour Kinase Reaction incubation, 5 μL of a 1:45000 dilution of Development Reagent A is added.
# [3] = biological target: T1, AURKA (Aurora A) (Homo sapiens, UniProt O14965); experiment: Z'-LYTE SelectScreen biochemical kinase assay AURKA (Aurora A)
# T1 sequence (O14965 1-403): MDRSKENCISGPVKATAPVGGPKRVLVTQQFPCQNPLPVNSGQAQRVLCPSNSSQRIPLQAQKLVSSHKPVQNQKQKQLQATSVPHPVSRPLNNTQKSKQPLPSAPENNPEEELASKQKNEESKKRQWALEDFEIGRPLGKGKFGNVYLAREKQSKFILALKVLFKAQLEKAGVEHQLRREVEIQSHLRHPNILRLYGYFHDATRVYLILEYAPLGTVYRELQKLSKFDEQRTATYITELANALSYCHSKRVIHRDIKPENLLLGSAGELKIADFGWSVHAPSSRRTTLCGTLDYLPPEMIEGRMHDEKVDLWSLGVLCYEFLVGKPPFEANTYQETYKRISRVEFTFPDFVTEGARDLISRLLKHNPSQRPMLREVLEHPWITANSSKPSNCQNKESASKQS
# Description: as §1, §2, §3, §4, §5, §6, §7, §8
# as §9, with “2×AURKA (Aurora A)/Ser/Thr 01” for “2×MAP4K4 (HGK)/Ser/Thr 07”, “0.91-8.56” for “0.36-1.82”, “AURKA (Aurora A)” for “MAP4K4 (HGK)”, “01” for “07”, “1:4096” for “1:45000”
# [4] = 10 μmolar compound concentration, ATP at Km app, read-out: MAP4K4 (HGK) inhibition
# [5] = read-out: % Inhibition mean MAP4K4 (HGK)
# [6] = 10 μmolar compound concentration, ATP at Km app, read-out: AURKA (Aurora A) inhibition
# [7] = read-out: % Inhibition mean AURKA (Aurora A)
SMILES,No. of kinases with <40% inhibition [1],"inhibition at 10 µM [2, 4] [%]","inhibition at 10 µM [2, 5] [%]","inhibition at 10 µM [3, 6] [%]","inhibition at 10 µM [3, 7] [%]"
"CCCCCn1ncc2c1CCC(Nc1nc3c(-c4ccc(F)cc4C)cccn3n1)C2 (stereo not drawn) [Example 47, [8-(4-fluoro-2-methyl-phenyl)-[1,2,4]triazolo[1,5-a]pyridine-2-yl]-(1-pentyl-4,5,6,7-tetrahydro-1H-indazol-5-yl)-amine]",15/15,< 40,32,< 40,10
"CCn1ncc2c1CCC(Nc1nc3c(-c4ccc(F)cc4C)cccn3n1)C2 (stereo not drawn) [Example 42, (1-Ethyl-4,5,6,7-tetrahydro-1H-indazol-5-yl)-[8-(4-fluoro-2-methyl-phenyl)-[1,2,4]triazolo[1,5-a]pyridine-2-yl]-amine]",15/15,< 40,37,< 40,-2
"Cc1cc(F)ccc1-c1cccn2nc(NC3CCc4cnn(C)c4C3)nc12 (stereo not drawn) [Example 40, [8-(4-Fluoro-2-methyl-phenyl)-[1,2,4]triazolo[1,5-a]pyridine-2-yl]-(1-methyl-4,5,6,7-tetrahydro-1H-indazol-6-yl)-amine]",13/15,40 to 80,45,< 40,13
"CCn1ncc2c1CC[C@@H](Nc1nc3c(-c4ccc(F)cc4C)cccn3n1)C2 [Example R-42, (R)-(1-Ethyl-4,5,6,7-tetrahydro-1H-indazol-5-yl)-[8-(4-fluoro-2-methyl-phenyl)-[1,2,4]triazolo[1,5-a]pyridine-2-yl]-amine]",14/15,40 to 80,56,< 40,3
"CCc1nn(C)c2c1CCC(Nc1nc3c(-c4ccc(F)cc4C)cccn3n1)C2 (stereo not drawn) [Example 54, (3-Ethyl-1-methyl-4,5,6,7-tetrahydro-1H-indazol-6-yl)-[8-(4-fluoro-2-methyl-phenyl)-[1,2,4]triazolo[1,5-a]pyridine-2-yl]-amine]",15/15,< 40,25,< 40,18

# Other lines, results leading:
No. of kinases with <40% inhibition [1],"inhibition at 10 µM [2, 4] [%]","inhibition at 10 µM [2, 5] [%]","inhibition at 10 µM [3, 6] [%]","inhibition at 10 µM [3, 7] [%]",SMILES
7/15,< 40,6,40 to 80,57,"Cc1cc(F)ccc1-c1cccn2nc(Nc3ccc4c(cnn4C)c3)nc12 [Example 9, [8-(4-fluoro-2-methyl-phenyl)-[1,2,4]triazolo[1,5-a]pyridine-2-yl]-(1-methyl-1H-indazol-5-yl)-amine]"
13/15,< 40,37,< 40,4,"Cc1cc(F)ccc1-c1cccn2nc(NC3CCc4c(cnn4C)C3)nc12 (stereo not drawn) [Example 10, [8-(4-fluoro-2-methyl-phenyl)-[1,2,4]triazolo[1,5-a]pyridine-2-yl]-(1-methyl-4,5,6,7-tetrahydro-1H-indazol-5-yl)-amine]"
12/15,40 to 80,58,< 40,7,"CCn1ncc2c1CCC(Nc1nc3c(-c4ccccc4)cccn3n1)C2 (stereo not drawn) [Example 57, (1-Ethyl-4,5,6,7-tetrahydro-1H-indazol-5-yl)-(8-phenyl-[1,2,4]triazolo[1,5-a]pyridine-2-yl)-amine]"
13/15,40 to 80,51,< 40,15,"CCn1ncc2c1CCC(Nc1nc3c(-c4ccc(F)cc4)cccn3n1)C2 (stereo not drawn) [Example 55, (1-Ethyl-4,5,6,7-tetrahydro-1H-indazol-5-yl)-[8-(4-fluoro-phenyl)-[1,2,4]triazolo[1,5-a]pyridine-2-yl]-amine]"
